Reference: patent US11584727B2, “2-thioxothiazolidin-4-one derivatives active as transthyretin ligands and uses thereof” (BSIM Therapeutics, S.A., priority 2014, dated 2023)

Tests used:
[1] = target: T1, wild type transthyretin (WT-TTR) (Homo sapiens, UniProt P02766); assay: WT-TTR amyloid fibril formation assay (turbidimetry, acid-induced); format: biochemical; conditions: for Fibril Formation (%): WT-TTR 3.6 μM, 1:1 TTR-compound stoichiometry, 37° C., normalized to no-compound control (100%)
T1 construct: made in house; host or cells: E. coli BL21 (DE3), pET23a plasmid

transthyretin (TTR) = target: T2, transthyretin (TTR) (Homo sapiens, UniProt P02766); assay: Thyroxine (T4) binding competition by gel electrophoresis in plasma, TTR band; conditions: for T4 bound to TTR: human plasma, [125I]T4, in presence of compound
T2 construct: from tissue; host or cells: human plasma
Method: Briefly, upon incubation of human plasma in the presence of the test compounds and radio-labeled T4 ([125I]T4), the samples are subjected to native PAGE. After electrophoresis, the gels are dried, subjected to phosphor imaging, and the intensity of the protein bands is then compared. […] The intensity of the bands decreases, as compared to the control samples (absence of compound), if the compound binds to the protein(s) competing with T4.
FIG. 24 presents the results of these experiments, where the bands in the gel correspond to the major T4 binding plasma proteins. The intensity of the bands decreases, as compared to the control samples (absence of compound), if the compound binds to the protein(s) competing with T4. The results were analyzed by calculation of the TTR/total (TTR+ALB+TBG) ratio for each sample collected at different time points. The displacement of T4 from TTR is calculated and plotted as the difference between the average of ratios of TTR/total protein for each control sample and the average of the ratios of TTR/total protein.
The assay for the binding to TTR through competition with T4 is performed by T4 binding gel electrophoresis as previously described in reference.
Five (5) μL of human plasma plus 0.25-0.5 μL of [125I]T4 (specific radioactivity 1250 μCi/m; concentration 320 μCi/mL; Perkin Elmer, Boston, Mass., U.S.A.) plus 5 μL of PBS with glycerol 50% are incubated for 1 hour at room temperature (RT) and the samples are subjected to native PAGE. After electrophoresis, the gels are dried, subjected to phosphor imaging (Typhoon 8600; Molecular Diagnostics, Amersham Biosciences), and analyzed using the ImageQuant program version 5.1. The intensity of the protein bands is compared. […]
The results are analyzed by calculation of the TTR/total (TTR+ALB+TBG) ratio for each sample collected at different time points. The displacement of T4 from TTR is calculated as the difference between the average of ratios of TTR/total protein for each control sample and the average of the ratios of TTR/total protein.

Row | Structure (SMILES) | inhibition of fibril formation ([1]; 1:2 compound-protein stoichiometry (0.5×), TTR 3.6 μM) | inhibitory activity against TTR amyloid fibril formation compared with reference compounds (in words) ([1]; TTR 3.6 μM, pH 4.4, 72 hours) | Fibril Formation (%) ([1]; pH 4.4, 72 hours) | IC50 ([1]; WT-TTR fixed at 3.6 μM, ten compound concentrations, pH 4.4, 72 hours) | competition with T4 (in words) (transthyretin (TTR); T4 competition and gel electrophoresis) | T4 bound to TTR (transthyretin (TTR))
1 | COc1cc(/C=C2\SC(=S)N(CC(=O)O)C2=O)cc(Cl)c1O [AT50-A00 (Z), (Z)-3-hydroxycarbonylmethyl-5-(3′-chloro-4′-hydroxy-5′-methoxyphenylmethylidene)-2-thioxothiazolidin-4-one] | above 70% | superior to that of reference compounds Tafamidis | 28% | 1.77 ± 0.24 µM | competes with T4 | 14.2%
2 | O=C(O)c1ccc2nc(-c3cc(Cl)cc(Cl)c3)oc2c1 [Tafamidis, reference compound] |  |  | 43% |  |  | 14.4%
